Results published in article PMC9973354 (mBio, 2022).
Several values for one entry are separate records, joined by “and”; a condition that tells them apart may be missing. Equal entries are not always repeated. Where two headings read alike, the source gives them in different places. Starred links: 1 amine or outer side, 2 acyl side, 3 side chain; linkers in the order of their positions; H or OH if unused. Positions of bridges follow the written chain, without caps; N, C: chain ends. Non-standard residues stand in square brackets, D forms with d. Residues, ends and D or L forms follow the SMILES beside them. ξ: configuration not given here. X1 = O=C([C@@H]1CCN=C2C(N[*:1])=Cc3cc(O)c(O)cc3N21)[*:2]; ξOrn(N(OH)CHO) = NC(CCCN(O)C=O)C(=O)O; Suc = O=C(CCC(=O)[*:2])[*:1]; ξK = NCCCCC(N)C(=O)O; ξS = NC(CO)C(=O)O

What was measured:
FpvB R648C = target: T1, FpvB R648C (Pseudomonas aeruginosa, UniProt A0A0H2ZFZ5, R648C); assay: Whole-cell fluorescence quenching, FpvB R648C in quadruple mutant; format: binding; details: FpvB R648C in quadruple mutant, two-site model
T1 sequence (A0A0H2ZFZ5 23-802 R648C): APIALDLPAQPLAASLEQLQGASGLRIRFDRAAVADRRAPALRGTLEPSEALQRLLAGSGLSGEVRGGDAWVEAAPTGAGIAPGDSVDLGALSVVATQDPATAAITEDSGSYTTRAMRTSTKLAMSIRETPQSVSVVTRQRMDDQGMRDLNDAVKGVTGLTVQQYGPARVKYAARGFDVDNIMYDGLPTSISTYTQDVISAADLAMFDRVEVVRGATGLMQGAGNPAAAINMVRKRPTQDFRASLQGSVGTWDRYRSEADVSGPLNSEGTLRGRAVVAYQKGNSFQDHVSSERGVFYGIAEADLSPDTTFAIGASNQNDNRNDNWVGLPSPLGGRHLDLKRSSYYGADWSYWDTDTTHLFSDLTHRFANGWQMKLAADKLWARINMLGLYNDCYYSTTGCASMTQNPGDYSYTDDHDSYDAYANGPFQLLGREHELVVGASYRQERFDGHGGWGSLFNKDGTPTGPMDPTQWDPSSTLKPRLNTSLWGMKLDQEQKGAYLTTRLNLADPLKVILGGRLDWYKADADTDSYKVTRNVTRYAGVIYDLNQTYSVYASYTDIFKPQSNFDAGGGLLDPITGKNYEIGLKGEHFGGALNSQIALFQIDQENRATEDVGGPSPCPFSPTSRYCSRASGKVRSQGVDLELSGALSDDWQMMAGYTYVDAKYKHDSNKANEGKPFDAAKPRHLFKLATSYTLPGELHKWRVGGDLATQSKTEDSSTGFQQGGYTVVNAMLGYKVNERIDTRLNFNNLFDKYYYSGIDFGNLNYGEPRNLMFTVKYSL
Procedure: Quenching assays with the two xenosiderophores were repeated for the quadruple TBDT mutant expressing WT FpvB, FpvB R191A R648C, or W347V R648C.
Cells were cultured overnight in LB with carbenicillin (200 μg/mL) at 37°C with shaking at 200 rpm. Cells were subcultured (1:200 dilution) in 10:90 plus 2% arabinose for 4 h without carbenicillin at 37°C with shaking at 200 rpm. Cells were harvested by centrifugation for 5 min and 6,000 × g and resuspended in sterile 1× phosphate-buffered saline (PBS) (pH 7.4); 1× PBS was made from a 10× stock (80 g NaCl, 2 g KCl, 26.8 g Na2 HPO4-7H2O, 2.4 g KH2PO4 in 1 L of deionized H2O) with 10 μM Alexa Fluor 594 C5 maleimide for microscopy or fluorescein-5-maleimide for fluorescence quenching and recovery assays and incubated in the dark at room temperature for 30 min on a shaking incubator at 37°C (200 rpm). Excess dye was quenched with 1 mM dithiothreitol (DTT) (Sigma) to stop the reaction. Cells were washed 3× with PBS. For fluorescence recovery assays, cells were incubated with 1× PBS plus 0.4% glucose at 37°C with shaking at 200 rpm. Glucose was prepared as a 20% stock (wt/vol) in 1× PBS and filter sterilized. Cells were spun down and washed 3× with 1× PBS and resuspended in 1× PBS for quenching assays and 1× PBS plus 0.4% glucose for fluorescence recovery assays.
For fluorescence quenching and recovery assays, cells were diluted to an OD600 of 0.1 for both types of assays, and 148 μL was added into wells of a 96-well black plate (Corning). Fluorescence was recorded for 5 min at 1-min intervals at 37°C (BioTek Neo; excitation, 494 nm; emission, 520 nm). After 5 min, 2 μL of each serial dilution for ferrioxamine-Fe^3+, ferrichrome-Fe^3+, and pyoverdine-Fe^3+ or DMSO for vehicle controls was added to each well. Fluorescence was recorded immediately for quenching assays and for 1 h at 1-min intervals for fluorescence recovery assays. Background fluorescence was subtracted from all fluorescence readings and 1-F/F0 was used to calculate the degree of quenching, where F0 is the initial fluorescence. Kd was calculated using GraphPad Prism using a one-site specific binding model or a two-site model. For fluorescence recovery assays, background was subtracted from all fluorescence readings and F/F0 expressed as a percent of control was plotted versus time.

PA14 ΔfpvB mutant = assay: Growth curves with DSX and siderophores, ΔfpvB; format: cell-based, Pseudomonas aeruginosa; details: 20 h
Procedure: Supplementary file : FIG S1 (A) FpvB is expressed in WT PA14 and the ΔfpvA mutant grown in 10:90. PilF was used as a loading control for outer membrane proteins. (B) FpvA is expressed from WT PA14 grown in 10:90. […] PilF was used as a loading control for outer membrane proteins. (C) Growth curves of PA14 and mutants with DSX and different siderophores in 10:90. PA14, ΔfpvA, ΔfpvB, ΔfpvA ΔfpvB, and ΔpvdA ΔpchA strain growth. Blue indicates control, purple indicates treatment with 64 μg/mL DSX, yellow indicates treatment with 10 μg/mL pyoverdine (PA14), and red indicates treatment with 64 μg/mL DSX and 10 μg/mL pyoverdine (PA14). (D) ΔfpvA, ΔfpvA ΔfpvB, and ΔpvdA ΔpchA strain growth. Blue indicates control, purple indicates treatment with 64 μg/mL DSX, grey indicates treatment with 10 μg/mL ferrichrome, and red indicates treatment with 64 μg/mL DSX and 10 μg/mL ferrichrome. (E) ΔfpvA, ΔfpvA ΔfpvB, and ΔpvdA ΔpchA strain growth. […] Download FIG S1, EPS file, 8.5 MB.
Another explanation for the susceptibility of the ΔfpvA mutant to DSX is that the mutant produces less pyoverdine compared to WT cells due to loss of the signaling cascade that controls siderophore production in response to its binding to FpvA ([25]). To differentiate whether the fpvA mutant was susceptible to DSX because of reduced pyoverdine production or because FpvB was a poor pyoverdine transporter, we treated the WT, ΔfpvA, ΔfpvB, and ΔfpvA ΔfpvB strains with DSX (64 μg/mL) without and with exogenous pyoverdine (10 μg/mL) for 20 h (Fig. 1; see also Fig. S1C). Growth of the ΔfpvA mutant should be restored if there are functional pyoverdine transporters. […] The growth of the ΔfpvA ΔfpvB mutant was inhibited by DSX and pyoverdine, confirming previously published results ([18]).

SMILES	Kd (FpvB R648C; read-out: Kd1 (converted))	Kd (FpvB R648C; read-out: Kd2 (converted))	growth with siderophore in the presence of DSX (PA14 ΔfpvB mutant; 64 μg/mL DSX + 10 μg/mL pyoverdine)	growth versus control (PA14 ΔfpvB mutant; DSX 64 μg/mL or pyoverdine 10 μg/mL alone, 10:90)
CC(=O)N(O)CCCCCNC(=O)CCC(=O)N(O)CCCCCNC(=O)CCC(=O)N(O)CCCCCN [ferrioxamine B]	0.178 µM and 0.17 µM	660 µM and 600 µM	–	–
NCCCCC(NC(=O)C(CO)NC(=O)[C@@H]1CCN=C2C(NC(=O)CCC(=O)O)=Cc3cc(O)c(O)cc3N21)C(=O)NCC(=O)NC(CCCN(O)C=O)C(=O)NC1CCCCNC(=O)C(CO)NC(=O)C(CCCN(O)C=O)NC1=O (stereo partly shown) [pyoverdine] (Suc-[X1][ξS][ξK]G[ξOrn(N(OH)CHO)][ξK][ξOrn(N(OH)CHO)][ξS]; lactam 6-C)	–	–	increased growth	increased growth
